Source: ChEMBL document CHEMBL5614376, “Discovery of MT-1207: A Novel, Potent Multitarget Inhibitor as a Promising Clinical Candidate for the Treatment of Hypertension” (J Med Chem, 2024)
Activity calls are given as the source filed them. The calls are words filed in the database; no cut-off is given here.

Key:
[1] = target: T1, Alpha-1A adrenergic receptor (Homo sapiens) (UniProt P35348); assay: Displacement of [3H]prazosin from recombinant human alpha 1A adrenoceptor extracted from CHO cell membrane at 1 nM incubated for 60 mins by radioligand binding assay relative to control; type: cell membranes
T1 sequence (whole entry): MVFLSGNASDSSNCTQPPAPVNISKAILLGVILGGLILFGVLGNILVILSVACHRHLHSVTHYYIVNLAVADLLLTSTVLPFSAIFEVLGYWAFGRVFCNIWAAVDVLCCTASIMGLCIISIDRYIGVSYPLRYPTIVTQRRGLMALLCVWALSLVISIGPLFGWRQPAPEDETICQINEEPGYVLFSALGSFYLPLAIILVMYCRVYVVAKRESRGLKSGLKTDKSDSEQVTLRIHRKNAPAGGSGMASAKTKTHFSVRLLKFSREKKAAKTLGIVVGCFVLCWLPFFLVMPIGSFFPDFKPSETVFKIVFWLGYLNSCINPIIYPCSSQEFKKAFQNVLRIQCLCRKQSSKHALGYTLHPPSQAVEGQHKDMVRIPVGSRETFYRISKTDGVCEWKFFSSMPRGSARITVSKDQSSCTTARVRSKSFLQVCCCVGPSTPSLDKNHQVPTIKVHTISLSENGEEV

[2] = target: T1, Alpha-1A adrenergic receptor (Homo sapiens); assay: Displacement of [3H]prazosin from recombinant human alpha 1A adrenoceptor extracted from CHO cell membrane at 10 nM incubated for 60 mins by radioligand binding assay relative to control; type: cell membranes
[3] = target: T1, Alpha-1A adrenergic receptor (Homo sapiens); assay: Displacement of [3H]prazosin from recombinant human alpha 1A adrenoceptor extracted from CHO cell membrane at 100 nM incubated for 60 mins by radioligand binding assay relative to control; type: cell membranes
[4] = target: T2, 5-hydroxytryptamine receptor 2A (Homo sapiens, UniProt P28223); assay: Displacement of [3H]Ketanserin from recombinant human 5-HT2A receptor extracted from CHO cell membrane at 1 nM incubated for 60 mins by radioligand binding assay relative to control; type: cell membranes
[5] = target: T2, 5-hydroxytryptamine receptor 2A; assay: Displacement of [3H]Ketanserin from recombinant human 5-HT2A receptor extracted from CHO cell membrane at 10 nM incubated for 60 mins by radioligand binding assay relative to control; type: cell membranes
[6] = target: T2, 5-hydroxytryptamine receptor 2A; assay: Displacement of [3H]Ketanserin from recombinant human 5-HT2A receptor extracted from CHO cell membrane at 100 nM incubated for 60 mins by radioligand binding assay relative to control; type: cell membranes
Rattus norvegicus [7] = assay: Antihypertensive activity in 2K2C renovascular hypertensive Sprague-Dawley rat model assessed as systolic blood pressure at 20 mg/kg, po measured after 9 weeks (Rvb ~ 202 mmHg); type: functional
Rattus norvegicus [8] = assay: Effect on serum urea level in 2K2C renovascular hypertensive Sprague-Dawley rat model at 20 mg/kg, po measured after 9 weeks by biochemical analysis; type: functional, organism-based
Rattus norvegicus [9] = assay: Effect on serum creatinine level in 2K2C renovascular hypertensive Sprague-Dawley rat model at 20 mg/kg, po measured after 9 weeks by biochemical analysis; type: functional, organism-based

T2 sequence (P28223 whole entry): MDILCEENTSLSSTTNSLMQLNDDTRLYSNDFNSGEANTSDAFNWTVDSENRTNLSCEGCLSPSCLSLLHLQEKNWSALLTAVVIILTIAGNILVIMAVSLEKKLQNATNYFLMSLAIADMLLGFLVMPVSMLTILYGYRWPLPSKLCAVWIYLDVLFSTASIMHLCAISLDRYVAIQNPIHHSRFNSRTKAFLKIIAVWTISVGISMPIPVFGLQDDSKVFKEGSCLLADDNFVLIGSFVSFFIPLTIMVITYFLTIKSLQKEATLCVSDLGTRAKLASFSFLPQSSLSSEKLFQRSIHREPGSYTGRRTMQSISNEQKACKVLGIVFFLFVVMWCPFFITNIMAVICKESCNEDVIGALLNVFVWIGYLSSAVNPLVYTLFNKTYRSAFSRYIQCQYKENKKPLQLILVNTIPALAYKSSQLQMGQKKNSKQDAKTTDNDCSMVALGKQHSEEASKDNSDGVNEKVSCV

Row | SMILES | inhibition [1] | inhibition ([2]; filed as antagonist) | inhibition ([3]; filed as antagonist) | inhibition ([5]; filed as antagonist) | inhibition ([6]; filed as antagonist) | inhibition [2] | also measured
1 | Fc1ccc2c(C3CCN(CCCn4nnc5ccccc54)CC3)noc2c1 | 39.8% | 87.7% | 98.8% | 96.4% | 98.7% |  | inhibition ([4]; filed as antagonist): 76.9%
2 | Fc1ccc2c(N3CCN(CCCCn4nc5ccccc5n4)CC3)noc2c1 |  | 99% | 101% | 61.1% | 96.5% |  | inhibition ([1]; filed as antagonist): 83.1%
3 | CCCCc1nc(Cl)c(CO)n1Cc1ccc(-c2ccccc2-c2nnn[nH]2)cc1 [LOSARTAN] |  |  |  |  |  |  | Activity (Rattus norvegicus [7]): 176 mmHg; Activity (Rattus norvegicus [8]): Active; Activity (Rattus norvegicus [9]): Active
4 | FC(F)(F)c1cccc(N2CCN(CCCCn3cnc4ccccc43)CC2)c1 | -1.42% |  | 89.3% |  |  | 36.4% | inhibition [6]: 37.7%
5 | Clc1cccc(N2CCN(CCCCn3cnc4ccccc43)CC2)c1Cl | 11.7% |  | 78% |  | 55% | 27% | inhibition [5]: -5.13%
6 | FC(F)(F)c1cccc(N2CCN(CCCCCCn3nc4ccccc4n3)CC2)c1 |  |  |  |  |  | 7.06% | inhibition [3]: 30.3%; inhibition [6]: 9.94%
7 | COc1cccc(OC)c1OCCNCC1COc2ccccc2O1 (configuration not stated) |  | 87% | 102% |  |  |  | inhibition ([1]; filed as antagonist): 46.3%
8 | Fc1cccc(N2CCN(CCCCn3cnc4ccccc43)CC2)c1 | -3.72% |  | 80.1% |  |  | 21.3% | inhibition [6]: 1.87%
9 | Fc1ccc2c(N3CCN(CCCCn4nnc5ccccc54)CC3)noc2c1 |  | 95% | 96.9% | 71.5% | 95.4% |  | inhibition ([1]; filed as antagonist): 98.6%
10 | Clc1cccc(N2CCN(CCCCn3nnc4ccccc43)CC2)c1 | 5.9% | 74.2% | 97.4% |  | 77.6% |  | inhibition [5]: 17.2%
11 | FC(F)(F)c1cccc(N2CCN(CCCn3nnc4ccccc43)CC2)c1 |  |  | 61.3% |  | 64.5% | -2.01% | inhibition [5]: -6.65%
12 | FC(F)(F)c1cccc(N2CCN(CCCCCn3nc4ccccc4n3)CC2)c1 | 8.76% |  | 44.8% |  |  | 14.8% | inhibition [6]: 14%
13 | FC(F)(F)c1cccc(N2CCN(CCCn3nc4ccccc4n3)CC2)c1 | -8.07% |  |  |  | 44.7% | -9.63% | inhibition [3]: 20.7%
14 | O=C(c1ccc(F)cc1)C1CCN(CCn2c(=O)[nH]c3ccccc3c2=O)CC1 |  |  |  | 89.6% |  |  | inhibition ([4]; filed as antagonist): 41.2%
15 | Fc1ccc2c(N3CCN(CCCn4nc5ccccc5n4)CC3)noc2c1 | 29.5% | 65.1% | 99.1% | 79.1% | 99.1% |  | inhibition [4]: 5.91%
16 | Fc1cccc(N2CCN(CCCCn3nnc4ccccc43)CC2)c1 | -7.76% | 46.6% | 91% |  | 54% |  | inhibition [5]: -2.88%
17 | FC(F)(F)c1cccc(N2CCN(CCCCn3nc4ccccc4n3)CC2)c1 | -7.22% |  | 53% |  |  | -1.54% | inhibition [6]: 38.1%
18 | FC(F)(F)c1cccc(N2CCN(CCn3nnc4ccccc43)CC2)c1 |  |  |  |  |  |  | inhibition [3]: 3.42%; inhibition [6]: 18.9%
19 | c1ccc2nn(CCCCN3CCN(c4nsc5ccccc45)CC3)nc2c1 |  | 96.2% | 100% | 78.3% | 101% |  | inhibition ([1]; filed as antagonist): 68.8%; inhibition [4]: -9.49%
20 | c1ccc2c(c1)ncn2CCCN1CCN(c2nsc3ccccc23)CC1 | 24.6% | 74.9% | 98% | 68.8% | 94% |  | inhibition [4]: -1.8%
21 | Fc1ccc2c(N3CCN(CCCn4cnc5ccccc54)CC3)noc2c1 |  | 98.4% | 100% | 87.3% | 98% |  | inhibition ([1]; filed as antagonist): 52.8%; inhibition [4]: 24.9%
